What all share (format): in vivo, rat
Assay [1] deals with ChAT. As to the kind of experiment: ChAT immunoreactivity in striatum after quinolinic acid induced injury. Particulars: adult male Wistar rats, 3 μg GPE into right lateral ventricle 2 hours after quinolinic acid, 3 days; no statistics; FIG. 6. The text has this: (§1) The objective of this study was to determine the effect of GPE administration on the expression of GAD, NOS and ChAT in the presence or absence of injury to the striatum induced by quinolinic acid. When injected into the striatum in experimental animals quinolinic acid produces lesions arising from the loss of striatopallidal and striatonigral GABAergic projection neurons, but spares the axons in the striatum (Science, 219, 316-318 [1983]). Rats were either treated with a control vehicle or GPE 2 hours after administration of quinolinic acid.
(§2) A total of 14 adult male Wistar rats (280-310 g) were used in this investigation. Eight rats were anaesthetized using halothane/O2 anaesthesia. An injection of quinolinic acid ([…], Sigma, dissolved in 4M NaOH) was stereotaxically placed in the dorsal region of the right striatum 0.8 mm anterior to bregma, 2.5 mm lateral to the midline and 4.0 mm ventral to the pial surface. […]
(§3) The size of the striatal region used for the count was measured using an image analyser (Mocha image analysis software). […] The data has not been analysed for statistical signigicance. Tissue from one of the GPE treated animals was unable to be counted.

The subject of assay [2] is NOS. Description: NOS immunoreactivity in striatum after quinolinic acid induced injury. The settings on record: adult male Wistar rats, 3 days, FIG. 5.
Excerpt: as §1, §2, §3

Assay [3] concerns GAD. As to the kind of experiment: GAD immunopositive striatal neuron count after hypoxic-ischemic injury. The settings on record: adult Wistar rats, 3 ug GPE 2 hours after hypoxia, striatum counted 3 days after injury, vs vehicle; *p<0.05; FIG. 2. The method, then:
The objective of these studies was to determine the effects of administering GPE on expression of GAD in the presence or absence of CNS injury. The experiment involved treating the rats with a control vehicle or GPE 2 hours after a focal CNS injury. […] The degree and length of hypoxia, the ambient temperature and humidity were defined to standardise the degree of damage. The neuronal death is restricted to the side of the carotid ligation and is primarily in the hippocampus, dentate gyrus, striatum and lateral cortex of the ligated hemisphere. There is no neuronal loss in the contralateral hemisphere. Specifically, nine pairs of adult wistar rats (280-320 g) were prepared under halothane/O2 anaesthesia. The right side carotid artery was ligated. A guide cannula was placed on the dura 7.5 mm anterior from stereotaxic zero and 1.5 mm from midline on the right. The rats were allowed to recover for 1 hour and were then placed in an incubator with humidity 90+/-5% and temperature 31+/-0.5° C. for 1 hour before hypoxia. Oxygen concentration was reduced and maintained at 6+/-0.202% for 10 minutes. […] The size of the striatal region used for the count was measured using an image analyser. […] Data were analysed with paired t-test and presented as mean +/- sem.

For assay [4], the system named is neuronal nitric oxide synthetase (NOS). Description: NOS immunopositive striatal neuron count after hypoxic-ischemic injury. Particulars: adult Wistar rats, 3 ug GPE 2 hours after hypoxia, striatum counted 3 days after injury, vs vehicle; #p=0.072, *p=0.008; FIG. 3. The method, then: (§4) The objective of these studies was to determine the effects of administering GPE on expression of NOS in the presence or absence of CNS injury. The experiment involved treating the rats with a control vehicle or GPE 2 hours after a focal CNS injury. […] The degree and length of hypoxia, the ambient temperature and humidity were defined to standardise the degree of damage. The neuronal death is restricted to the side of the carotid ligation and is primarily in the hippocampus, dentate gyrus, striatum and lateral cortex of the ligated hemisphere. There is no neuronal loss in the contralateral hemisphere.
Specifically, nine pairs of adult wistar rats (280-320 g) were prepared under halothane/O2 anaesthesia. The right side carotid artery was ligated. A guide cannula was placed on the dura 7.5 mm anterior from stereotaxic zero and 1.5 mm from midline on the right. The rats were allowed to recover for 1 hour and were then placed in an incubator with humidity 90+/−5% and temperature 31+/−0.5° C. for 1 hour before hypoxia. Oxygen concentration was reduced and maintained at 6+/−0.202% for 10 minutes. […]
(§5) The size of the striatal region used for the count was measured using an image analyser. […] Data were analysed with paired t-test and presented as mean +/− sem.

In assay [5] the test system is GAD. As to the kind of experiment: GAD immunoreactivity in striatum after quinolinic acid induced injury. The settings on record: adult male Wistar rats, 3 μg GPE into right lateral ventricle 2 hours after quinolinic acid, 3 days, vs vehicle; no statistics; FIG. 4.
Excerpt: as §1, §2, §3

The test system of assay [6] is Choline acetyltransferase (ChAT). Description: ChAT immunopositive striatal neuron count after hypoxic-ischemic injury. The settings on record: adult Wistar rats, 3 ug GPE centrally via guide cannula 2 hours after hypoxia, striatum counted 3 days after injury, vs vehicle; FIG. 1. The method, then:
as §4, with “ChAT” for “NOS”, “hippocarnpus,” for “hippocampus,”
Specifically, nine pairs of adult wistar rats (280-320g) were prepared under halothane/O2 anaesthesia. The right side carotid artery was ligated. A guide cannula was placed on the dura 7.5 mm anterior from stereotaxic zero and 1.5 mm from midline on the right. The rats were allowed to recover for 1 hour and were then placed in an incubator with humidity 90+/−5% and temperature 31+/−0.5° C. for 1 hour before hypoxia. Oxygen concentration was reduced and maintained at 6+/−0.202% for 10 minutes. […]
as §5

The text below walks through data of patent publication US6365573B1, “Regulation of neural enzymes” (Neuronz Ltd., priority 1996, dated 2002).

Gly-Pro-Glu [GPE]: the “levels of ChAT (ChAT-positive striatal neurons)” value in assay [1] was “upregulated the levels of ChAT to above normal on the right (injured) side of the brain”. Moreover, in assay [2] (3 μg GPE 2 hours after quinolinic acid, compared with normal controls), the “NOS enzyme levels relative to normal, left (non-injured) side” value is given as “restoring the enzyme levels to normal”. The “NOS enzyme expression (NOS-positive striatal neurons)” value in assay [2] (3 μg GPE into right lateral ventricle 2 hours after quinolinic acid, vs vehicle, no statistics) is reported as “upregulation of enzyme expression on both sides of the brain”. Besides, in assay [3], the “number of GAD immunopositive neurons” value is on record as “increased in the right side”. The “number of NOS immunopositive neurons” value in assay [4] was “increased in both the right and left (uninjured) sides”. In addition, the “GAD expression (GAD-positive striatal neurons)” value in assay [5] is listed as “upregulation of GAD expression on both sides of the brain”. The “number of ChAT immunopositive neurons” value in assay [6] is “increased in both the right and left (uninjured) sides”.
